System: LXRα and/or LXRβ
Assay: Co-transfection assay (LXRE luciferase reporter, CV-1 cells)
Format: cell-based, human
Settings: for IC50 or EC50 (potency, activation or inhibition): tested as described in Example 33, IC50 or EC50 for LXRα and/or LXRβ, isoform not specified, read-out: activity (IC50 or EC50 for LXR); for EC50: read-out: activity (IC50 or EC50 for LXR), tested as described in Example 33, isoform not specified
Outline: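 Luciferase signal measures LXR-RXR transcriptional activation in transiently transfected CV-1 cells carrying human LXRα or LXRβ, RXRα and a single-copy LXRE reporter. Cells were exposed to compound for 20 h at 37 °C with at most 1% DMSO, using 10 μM final for screening. Potency was derived from 4-parameter fits of 8-point, half-log dose curves averaged over ≥3 runs, and efficacy was expressed as % of a reference agonist.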

IC50 or EC50 (potency, activation or inhibition) [µM]	SMILES	EC50 [µM]
< 1	CC(C)(O)c1cn(-c2ccc(-c3ccc(C(C)(C)O)c(S(C)(=O)=O)c3)cc2)c(-c2cccc(Cl)c2Cl)n1 [Example 105, 2-(2-(2,3-dichlorophenyl)-1-(4′-(2-hydroxypropan-2-yl)-3′-(methylsulfonyl)biphenyl-4-yl)-1H-imidazol-4-yl)propan-2-ol]	
< 1	COc1ccc(-c2ccc(-n3cc(C(C)(C)O)nc3-c3cccc(Cl)c3Cl)cc2)cc1S(C)(=O)=O [Example 455, 2-(2-(2,3-dichlorophenyl)-1-(4′-methoxy-3′-(methylsulfonyl)biphenyl-4-yl)-1H-imidazol-4-yl)propan-2-ol]	
< 1	CC(C)(CO)c1cn(-c2ccc(-c3cccc(S(C)(=O)=O)c3)cc2)c(-c2c(Cl)cccc2Cl)n1 [Example 479, 2-(2-(2,6-dichlorophenyl)-1-(3′-(methylsulfonyl)biphenyl-4-yl)-1H-imidazol-4-yl)-2-methylpropan-1-ol]	
< 1	CCS(=O)(=O)c1cccc(-c2ccc(-c3nc(C(C)(C)O)cn3-c3c(Cl)cccc3Cl)cc2)c1 [Example 64, 2-(1-(2,6-dichlorophenyl)-2-(3′-(ethylsulfonyl)biphenyl-4-yl)-1H-imidazol-4-yl)propan-2-ol]	
< 1	Cc1cccc(Cl)c1-c1nc(C(C)(C)O)cn1-c1ccc(-c2ccc(CO)c(S(C)(=O)=O)c2)cc1Cl [Example 155, 2-(1-(3-chloro-4′-(hydroxy-methyl)-3′-(methylsulfonyl)biphenyl-4-yl)-2-(2-chloro-6-methylphenyl)-1H-imidazol-4-yl)propan-2-ol]	
< 1	CCOC(=O)c1cn(-c2ccc(-c3cccc(S(C)(=O)=O)c3)cc2)c(-c2ccccc2C(F)(F)F)n1 [Example 367]	
	CC(C)(O)c1cn(-c2ccc(-c3cccc(S(C)(=O)=O)c3)cc2)c(CCc2ccccc2Cl)n1 [Example 27, 2-(2-(2-chlorophenethyl)-1-(3′-(methylsulfonyl)biphenyl-4-yl)-1H-imidazol-4-yl)propan-2-ol]	< 1
1 to 10	CC(C)(O)c1cn(-c2ccc(-c3cccc(S(C)(=O)=O)c3)nc2)c(-c2ccccc2C(F)(F)F)n1 [Example 421, 2-(1-{6-[3-(methyl-sulfonyl)phenyl]pyridin-3-yl}-2-[2-(trifluoromethyl)phenyl]-1H-imidazol-4-yl)propan-2-ol]	
< 1	CCS(=O)(=O)c1cccc(-c2ccc(-n3cc(C(=O)NC(C)(C)CO)nc3-c3c(Cl)cccc3Cl)c(Cl)c2)c1 [Example 464, 1-(3-chloro-3′-(ethylsulfonyl)biphenyl-4-yl)-2-(2,6-dichlorophenyl)-N-(1-hydroxy-2-methylpropan-2-yl)-1H-imidazole-4-carboxamide]	
< 1	COc1ccc(-c2ccc(-n3cc(C(C)(C)O)nc3Cc3cccc(Cl)c3Cl)c(Cl)c2)cc1S(C)(=O)=O [Example 457, 2-(1-(3-chloro-4′-methoxy-3′-(methyl-sulfonyl)biphenyl-4-yl)-2-(2,3-dichlorobenzyl)-1H-imidazol-4-yl)propan-2-ol]	
1 to 10	CC(C)(C)c1ccc(-c2ccc(-n3cc(C(C)(C)O)nc3-c3ccccc3Cl)cc2)cc1 [Example 389, 2-{2-(2-chlorophenyl)-1-[4′-(1,1-dimethylethyl)biphenyl-4-yl]-1H-imidazol-4-yl}propan-2-ol]	
< 1	CC(=O)c1cn(-c2ccc(-c3cccc(S(C)(=O)=O)c3)cc2)c(-c2c(Cl)cccc2Cl)n1 [Example 69, 1-(2-(2,6-dichlorophenyl)-1-(3′-(methylsulfonyl)biphenyl-4-yl)-1H-imidazol-4-yl)ethanone]	
< 1	CCS(=O)(=O)c1cccc(-c2ccc(-n3cc(C(C)(C)O)nc3-c3ccccc3C(F)(F)F)c(C)c2)c1 [Example 184, 2-(1-(3′-(ethylsulfonyl)-3-methyl-biphenyl-4-yl)-2-(2-(trifluoro-methyl)phenyl)-1H-imidazol-4-yl)propan-2-ol]	
< 1	CCS(=O)(=O)c1cccc(-c2ccc(-n3cc(C(C)(C)O)nc3-c3nccc4ccccc34)c(Cl)c2)c1 [Example 34, 2-(1-(3-chloro-3′-(ethyl-sulfonyl)biphenyl-4-yl)-2-(isoquinolin-1-yl)-1H-imidazol-4-yl)propan-2-ol]	
< 1	CCS(=O)(=O)c1cccc(-c2ccc(-n3cc(C(C)(C)O)nc3-c3c(F)cccc3F)c(C)c2)c1 [Example 194, 2-(2-(2,6-difluorophenyl)-1-(3′-(ethylsulfonyl)-3-methylbiphenyl-4-yl)-1H-imidazol-4-yl)propan-2-ol]	
< 1	CS(=O)(=O)c1cccc(-c2ccc(-n3cc(C(=O)NCCO)nc3-c3c(Cl)cccc3Cl)c(Cl)c2)c1 [Example 470, 1-(3-chloro-3′-(methylsulfonyl)biphenyl-4-yl)-2-(2,6-dichlorophenyl)-N-(2-hydroxyethyl)-1H-imidazole-4-carboxamide]	

IC50 or EC50 (potency, activation or inhibition) [µM]	SMILES	EC50 [µM]
< 1	CN(C)c1cccc(F)c1-c1nc(C(C)(C)O)cn1-c1ccc(-c2cccc(S(C)(=O)=O)c2)cc1 [Example 90, 2-(2-(2-(dimethylamino)-6-fluoro-phenyl)-1-(3′-(methylsulfonyl)biphenyl-4-yl)-1H-imidazol-4-yl)propan-2-ol]	
< 1	CCS(=O)(=O)c1cccc(-c2ccc(-n3cc(C(C)(C)O)nc3-c3ccccc3C(F)(F)F)c(Cl)c2)c1 [Example 136, 2-(1-(3-chloro-3′-(ethyl-sulfonyl)biphenyl-4-yl)-2-(2-(trifluoromethyl)phenyl)-1H-imidazol-4-yl)propan-2-ol]	
< 1	CCC(O)(CC)c1cn(-c2ccc(-c3cccc(S(=O)(=O)CC)c3)cc2)c(-c2cccc(Cl)c2Cl)n1 [Example 73, 3-(2-(2,3-dichlorophenyl)-1-(3′-(ethylsulfonyl)biphenyl-4-yl)-1H-imidazol-4-yl)pentan-3-ol]	
< 1	CC(C)(O)c1cn(-c2ccc(-c3ccc(C(C)(C)O)c(S(C)(=O)=O)c3)cc2Cl)c(-c2ccccc2Cl)n1 [Example 162, 2-(3′-chloro-4′-(2-(2-chlorophenyl)-4-(2-hydroxypropan-2-yl)-1H-imidazol-1-yl)-3-(methylsulfonyl)biphenyl-4-yl)propan-2-ol]	
< 1	CC(C)(O)c1cn(-c2ccc(-c3ccc(CO)c(S(C)(=O)=O)c3)cc2Cl)c(-c2ccccc2Cl)n1 [Example 138, 2-(1-(3-chloro-4′-(hydroxymethyl)-3′-(methylsulfonyl)biphenyl-4-yl)-2-(2-chlorophenyl)-1H-imidazol-4-yl)propan-2-ol]	
< 1	Cc1cc(-c2cccc(S(C)(=O)=O)c2)ccc1-n1cc(C(=O)NCC(F)(F)F)nc1-c1ccccc1C(C)C [Example 89]	
	CCS(=O)(=O)c1cccc(-c2ccc(-n3cc(C(C)(C)O)nc3C(C)(C)c3cccc(Cl)c3Cl)cc2)c1 [Example 22, 2-(2-(2-(2,3-dichloro-phenyl)propan-2-yl)-1-(3′-(ethylsulfonyl)biphenyl-4-yl)-1H-imidazol-4-yl)propan-2-ol]	< 1
< 1	C/C(=N\O)c1cn(-c2ccc(-c3cccc(S(C)(=O)=O)c3)cc2)c(-c2ccccc2Cl)n1 [Example 408, 1-{2-(2-chlorophenyl)-1-[3′-(methylsulfonyl)biphenyl-4-yl]-1H-imidazol-4-yl}ethanone oxime]	
< 1	CS(=O)(=O)Nc1cccc(-c2ccc(-n3cc(C(F)(F)F)nc3-c3ccccc3C(F)(F)F)cc2)c1 [Example 375, N-(4′-{4-(trifluoromethyl)-2-[2-(trifluoromethyl)phenyl]-1H-imidazol-1-yl}biphenyl-3-yl)methane-sulfonamide]	
< 1	CC(C)S(=O)(=O)c1cccc(-c2ccc(-n3cc(C(F)(F)F)nc3-c3ccccc3C(F)(F)F)nc2)c1 [Example 372, 5-{3-[(1-methylethyl)sulfonyl]phenyl}-2-{4-(trifluoromethyl)-2-[2-(trifluoro-methyl)phenyl]-1H-imidazol-1-yl}pyridine]	
< 1	CC(C)(O)c1cn(-c2ccc(-c3cccc(S(C)(=O)=O)c3)cc2F)c(-c2cccc(Cl)c2Cl)n1 [Example 113, 2-(2-(2,3-dichlorophenyl)-1-(3-fluoro-3′-(methylsulfonyl)biphenyl-4-yl)-1H-imidazol-4-yl)propan-2-ol]	
1 to 10	CC(C)(O)c1cn(-c2ccc(-c3ccc4c(c3)S(=O)(=O)CC4O)cc2Cl)c(-c2c(F)cccc2Cl)n1 (stereo not shown) [Example 469, 6-{3-chloro-4-[2-(2-chloro-6-fluorophenyl)-4-(1-hydroxy-1-methylethyl)-1H-imidazol-1-yl]phenyl}-2,3-dihydro-1-benzo-thiophene-3-ol 1,1-dioxide]	
< 1	CS(=O)(=O)c1cccc(-c2ccc(-n3cc(C(=O)NCC(F)(F)F)nc3-c3c(Cl)cccc3Cl)c(Cl)c2)c1 [Example 459, 1-(3-chloro-3′-(methyl-sulfonyl)biphenyl-4-yl)-2-(2,6-dichlorophenyl)-N-(2,2,2-trifluoro-ethyl)-1H-imidazole-4-carboxamide]	
< 1	CS(=O)(=O)c1cccc(-c2ccc(-n3cc(C(=O)NCCO)nc3-c3c(Cl)cccc3Cl)cc2)c1 [Example 84, 2-(2,6-dichlorophenyl)-N-(2-hydroxyethyl)-1-(3′-(methyl-sulfonyl)biphenyl-4-yl)-1H-imidazole-4-carboxamide]	
	CCS(=O)(=O)c1cccc(-c2ccc(-n3cc(C(C)(C)O)nc3Cc3cccc(Cl)c3Cl)c(Cl)c2)c1 [Example 26, 2-(1-(3-chloro-3′-(ethyl-sulfonyl)biphenyl-4-yl)-2-(2,3-dichlorobenzyl)-1H-imidazol-4-yl)propan-2-ol]	< 1
